Patent US8772300B2, “Phenyl or pyridinyl-ethynyl derivatives” (Hoffmann-La Roche Inc., priority 2011, dated 2014)

Biological target: T1, human mGlu5a receptor (Homo sapiens, UniProt P41594)
T1 construct: expressed in transfected cells
Test: Intracellular Ca2+ mobilization assay (mGlu5 PAM)
Type: cell-based
Settings: for Emax: HEK293, maximal response in % of the maximal stimulatory effect obtained with saturating concentrations of L-glutamate, HEK-293 human mGlu5a cells, read-out: Eff. (%); for EC50: HEK-293 cells stably transfected with human mGlu5a receptor, L-glutamate added at EC20 (typically around 80 μM) after 10-30 min pre-incubation with test compound, read-out: EC50 (nM) mGlu5PAM
Description: A monoclonal HEK-293 cell line stably transfected with a cDNA encoding for the human mGlu5a receptor was generated; for the work with mGlu5 Positive Allosteric Modulators (PAMs), a cell line with low receptor expression levels and low constitutive receptor activity was selected to allow the differentiation of agonistic versus PAM activity. Cells were cultured according to standard protocols (Freshney, 2000) in Dulbecco's Modified Eagle Medium with high glucose supplemented with 1 mM glutamine, 10% (vol/vol) heat-inactivated bovine calf serum, Penicillin/Streptomycin, 50 μg/ml hygromycin and 15 μg/ml blasticidin (all cell culture reagents and antibiotics from Invitrogen, Basel, Switzerland).
About 24 hrs before an experiment, 5×10^4 cells/well were seeded in poly-D-lysine coated, black/clear-bottomed 96-well plates. The cells were loaded with 2.5 μM Fluo-4AM in loading buffer (1×HBSS, 20 mM HEPES) for 1 hr at 37° C. and washed five times with loading buffer. The cells were transferred into a Functional Drug Screening System 7000 (Hamamatsu, Paris, France), and 11 half logarithmic serial dilutions of test compound at 37° C. were added and the cells were incubated for 10-30 min with on-line recording of fluorescence. Following this pre-incubation step, the agonist L-glutamate was added to the cells at a concentration corresponding to EC20 (typically around 80 μM) with on-line recording of fluorescence; in order to account for day-to-day variations in the responsiveness of cells, the EC20 of glutamate was determined immediately ahead of each experiment by recording of a full dose-response curve of glutamate.
Responses were measured as peak increase in fluorescence minus basal (i.e. fluorescence without addition of L-glutamate), normalized to the maximal stimulatory effect obtained with saturating concentrations of L-glutamate. Graphs were plotted with the % maximal stimulatory using XLfit, a curve fitting program that iteratively plots the data using Levenburg Marquardt algorithm. The single site competition analysis equation used was y=A+((B−A)/(1+((x/C)D))), where y is the % maximal stimulatory effect, A is the minimum y, B is the maximum y, C is the EC50, x is the log 10 of the concentration of the competing compound and D is the slope of the curve (the Hill Coefficient). From these curves the EC50 (concentration at which half maximal stimulation was achieved), the Hill coefficient as well as the maximal response in % of the maximal stimulatory effect obtained with saturating concentrations of L-glutamate were calculated.
A depression of the signal observed after addition of the EC20 concentration of L-glutamate was indicative of an inhibitory activity of the test compound.

T1 sequence (P41594 21-1180 isoform P41594-2 limits assumed): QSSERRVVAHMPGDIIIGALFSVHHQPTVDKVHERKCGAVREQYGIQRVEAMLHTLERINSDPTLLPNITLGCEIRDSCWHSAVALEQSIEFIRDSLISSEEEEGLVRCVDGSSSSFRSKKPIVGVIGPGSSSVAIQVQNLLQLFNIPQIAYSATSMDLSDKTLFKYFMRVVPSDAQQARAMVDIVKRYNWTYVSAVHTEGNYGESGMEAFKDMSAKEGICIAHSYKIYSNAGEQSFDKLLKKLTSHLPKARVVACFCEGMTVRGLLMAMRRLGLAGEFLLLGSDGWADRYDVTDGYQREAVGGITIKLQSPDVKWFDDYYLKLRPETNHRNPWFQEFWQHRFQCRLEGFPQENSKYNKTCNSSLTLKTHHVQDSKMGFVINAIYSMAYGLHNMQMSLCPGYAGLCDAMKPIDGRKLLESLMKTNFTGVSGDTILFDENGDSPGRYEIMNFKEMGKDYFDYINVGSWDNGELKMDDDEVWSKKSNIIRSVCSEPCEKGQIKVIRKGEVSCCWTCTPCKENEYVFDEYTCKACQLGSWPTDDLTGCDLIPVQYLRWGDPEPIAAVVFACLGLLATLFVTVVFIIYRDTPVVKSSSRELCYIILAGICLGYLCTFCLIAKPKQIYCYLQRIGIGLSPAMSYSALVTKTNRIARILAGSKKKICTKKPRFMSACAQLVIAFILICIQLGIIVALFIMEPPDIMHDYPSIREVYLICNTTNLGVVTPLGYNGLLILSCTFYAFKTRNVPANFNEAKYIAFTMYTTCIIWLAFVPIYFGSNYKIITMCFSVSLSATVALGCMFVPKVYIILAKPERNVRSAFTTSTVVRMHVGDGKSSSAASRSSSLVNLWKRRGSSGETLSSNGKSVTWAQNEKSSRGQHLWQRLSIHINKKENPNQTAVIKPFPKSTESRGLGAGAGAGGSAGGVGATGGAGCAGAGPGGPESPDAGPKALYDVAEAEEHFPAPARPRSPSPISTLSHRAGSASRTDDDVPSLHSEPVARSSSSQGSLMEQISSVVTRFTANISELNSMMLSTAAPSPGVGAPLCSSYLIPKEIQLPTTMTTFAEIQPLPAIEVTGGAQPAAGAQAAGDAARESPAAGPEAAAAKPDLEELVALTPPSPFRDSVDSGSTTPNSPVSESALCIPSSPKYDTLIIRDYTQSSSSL

| Structure (SMILES) | Emax | EC50 |
| --- | --- | --- |
| CN(C(=O)c1ncc(C#Cc2ccccc2)cc1F)C1(C)COC1 [Example 50, 3-Fluoro-5-phenylethynyl-pyridine-2-carboxylic Acid methyl-(3-methyl-oxetan-3-yl)-amide] | 67% | 40 nM |
| CN(C(=O)c1ncc(C#Cc2ccccc2)cc1C#N)C(C)(C)C [Example 52, 3-Cyano-5-phenylethynyl-pyridine-2-carboxylic Acid tert-butyl-methyl-amide] | 96% | 34 nM |
| CN(C(=O)c1ccc(C#Cc2cncc(Cl)c2)cn1)C1(C(F)(F)F)CC1 [Example 53, 5-(5-Chloro-pyridin-3-ylethynyl)-pyridine-2-carboxylic Acid methyl-(1-trifluoromethyl-cyclopropyl)-amide] | 57% | 44 nM |
| CC(C)(NC(=O)c1ccc(C#Cc2ccnc(Cl)c2)cn1)C(F)(F)F [Example 54, 5-(2-Chloro-pyridin-4-ylethynyl)-pyridine-2-carboxylic Acid (2,2,2-trifluoro-1,1-dimethyl-ethyl)-amide] | 80% | 37 nM |
| CN(C(=O)c1ccc(C#Cc2cncc(Cl)c2)cn1)C(C)(C)C(F)(F)F [Example 55, 5-(5-Chloro-pyridin-3-ylethynyl)-pyridine-2-carboxylic Acid methyl-(2,2,2-trifluoro-1,1-dimethyl-ethyl)-amide] | 63% | 37 nM |
| CN(C(=O)c1ccc(C#Cc2cccc(Cl)c2)cn1)C(C)(C)C(F)(F)F [Example 56, 5-(3-Chloro-phenylethynyl)-pyridine-2-carboxylic Acid methyl-(2,2,2-trifluoro-1,1-dimethyl-ethyl)-amide] | 29% | 22 nM |
| CC(C)(NC(=O)c1ncc(C#Cc2ccnc(Cl)c2)cn1)C(F)(F)F [Example 58, 5-(2-Chloro-pyridin-4-ylethynyl)-pyrimidine-2-carboxylic Acid (2,2,2-trifluoro-1,1-dimethyl-ethyl)-amide] | 30% | 57 nM |
